Measurements as given in DBAASP.
≈ marks a conversion by molar mass, not a printed value. Where “and” joins values, the source holds several entries; their conditions need not be identical. Equal values may be shown once. Values belong to the compound of their own block, whether it stands above or below them.

Key:
Assay in all cases: ≥ marks a high value that may be exact or a test limit, other limits are often not marked, values filed in µg/mL are converted to µM
[1] = system: Saccharomyces cerevisiae CGMCC 2.3973
[2] = system: Escherichia coli ATCC 25922
[3] = system: Bacillus subtilis ATCC 6633
[4] = system: Staphylococcus aureus ATCC 25923
[5] = system: Pseudomonas aeruginosa ATCC 27853
[6] = system: Pseudomonas syringae pv. syringae EPS 94
[7] = system: Xanthomonas fragariae Xf349-9A
[8] = system: Pseudomonas syringae pv. actinidiae Psa3700.1.1
[9] = system: Xanthomonas arboricola pv. pruni CFBP 5563
[10] = system: Xanthomonas campestris pv. Vesicatoria 2133-2
[11] = system: Erwinia amylovora PMV 6076
[12] = system: Staphylococcus aureus CCARM 3095
[13] = system: Bacillus subtilis KCTC 3068
[14] = system: Staphylococcus aureus CCARM 3089
[15] = system: Pseudomonas aeruginosa CCARM 2109
[16] = system: Salmonella typhimurium KCTC 1926
[17] = system: Staphylococcus aureus CCARM 3090
[18] = system: Enterococcus faecium ATCC 51559
[19] = system: Staphylococcus epidermidis KCTC 1917
[20] = system: Pseudomonas aeruginosa KCTC 1637
[21] = system: Pseudomonas aeruginosa CCARM 2095
[22] = system: Escherichia coli KCTC 1682
[23] = system: Bacillus subtilis KCTC 1998
[24] = system: Escherichia coli CCARM 1238
[25] = system: Pseudomonas aeruginosa 4891
[26] = system: Staphylococcus aureus CCARM 3518
[27] = system: Listeria monocytogenes KCTC 3710
[28] = system: Candida albicans KCTC 7270
[29] = system: Pseudomonas aeruginosa 4007
[30] = system: Trichosporon beigelii KCTC 7707
[31] = system: Escherichia coli CCARM 1229
[32] = system: Staphylococcus aureus LAC

MIC [1]: ≥ 254 µM
MIC [2]: 31.8 µM (≈ 64 µg/mL)
MIC [3]: ≥ 254 µM
MIC [4]: 254 µM (≈ 512 µg/mL)
MIC [5]: > 254 µM
Compound: CC[C@H](C)[C@H](NC(=O)CNC(=O)[C@@H](NC(=O)[C@H](CCCCN)NC(=O)[C@@H](NC(=O)[C@H](CCCCN)NC(=O)[C@H](CCCCN)NC(=O)[C@H](CC(=O)O)NC(=O)CNC(=O)[C@H](C)N)[C@@H](C)CC)[C@@H](C)CC)C(=O)N[C@@H](CC(N)=O)C(=O)NCC(=O)N[C@@H](Cc1ccccc1)C(=O)NCC(=O)N[C@@H](CCCN=C(N)N)C(=O)N[C@H](C(=O)NCC(=O)N[C@@H](CCCN=C(N)N)C(=O)N[C@@H](CC(C)C)C(=O)O)[C@@H](C)CC [AGDKKIKIGINGFGRIGRL]

MIC [6]: ≥ 50 µM
MIC [7]: ≥ 50 µM
MIC [8]: ≥ 50 µM
MIC [9]: ≥ 50 µM
MIC [10]: ≥ 50 µM
MIC [11]: ≥ 50 µM
Compound: CC(C)[C@H](N)C(=O)N[C@@H](Cc1c[nH]c2ccccc12)C(=O)N[C@@H](CC(N)=O)C(=O)N[C@@H](CCC(N)=O)C(=O)N1CCC[C@H]1C(=O)N[C@H](C(=O)N[C@@H](CCCN=C(N)N)C(=O)NCC(=O)N[C@@H](Cc1ccccc1)C(=O)N[C@@H](CCCCN)C(=O)N[C@H](C(=O)N[C@@H](Cc1ccc(O)cc1)C(=O)N[C@@H](CCC(=O)O)C(=O)O)C(C)C)C(C)C [VWNQPVRGFKVYE]

MIC [12]: 2 µM (≈ 4.86 µg/mL)
MIC [13]: 8 µM (≈ 19.4 µg/mL)
MIC [14]: 2 µM (≈ 4.86 µg/mL)
MIC [15]: 8 µM (≈ 19.4 µg/mL)
MIC [16]: 2 µM (≈ 4.86 µg/mL)
MIC [17]: 2 µM (≈ 4.86 µg/mL)
MIC [18]: 4 µM (≈ 9.72 µg/mL)
MIC [19]: 4 µM (≈ 9.72 µg/mL)
MIC [20]: 2 µM (≈ 4.86 µg/mL)
MIC [21]: 4 µM (≈ 9.72 µg/mL)
MIC [22]: 4 µM and 8 µM
Compound: CC[C@H](C)[C@H](NC(=O)[C@H](Cc1ccccc1)NC(=O)[C@H](CCCN=C(N)N)NC(=O)[C@@H](N)CCCCN)C(=O)N[C@@H](CCCCN)C(=O)N[C@@H](Cc1c[nH]c2ccccc12)C(=O)N[C@@H](Cc1ccc(O)cc1)C(=O)N[C@@H](CCCCN)C(=O)N[C@@H](C)C(=O)N[C@@H](Cc1c[nH]c2ccccc12)C(=O)N[C@@H](CC(N)=O)C(=O)N[C@@H](CCCCN)C(=O)N[C@@H](CCCCN)C(=O)N[C@@H](Cc1c[nH]c2ccccc12)C(=O)N[C@@H](CCCN=C(N)N)C(=O)N[C@@H](CCCCN)C(=O)N[C@@H](Cc1ccc(O)cc1)C(N)=O [KRFIKWYKAWNKKWRKY]

MIC [23]: 4 µM (≈ 8.2 µg/mL)
MIC [24]: 2 µM (≈ 4.1 µg/mL)
MIC [25]: 8 µM (≈ 16.4 µg/mL)
MIC [26]: 4 µM (≈ 8.2 µg/mL)
MIC [2]: 2 µM (≈ 4.1 µg/mL)
MIC [27]: 8 µM (≈ 16.4 µg/mL)
MIC [4]: 4 µM (≈ 8.2 µg/mL)
MIC [28]: 16 µM (≈ 32.8 µg/mL)
MIC [16]: 4 µM (≈ 8.2 µg/mL)
MIC [17]: 4 µM (≈ 8.2 µg/mL)
MIC [29]: 4 µM (≈ 8.2 µg/mL)
MIC [5]: 4 µM (≈ 8.2 µg/mL)
MIC [30]: 16 µM (≈ 32.8 µg/mL)
MIC [31]: 2 µM (≈ 4.1 µg/mL)
Compound: CC[C@H](C)[C@H](NC(=O)[C@H](CCCCN)NC(=O)[C@H](CCCCN)NC(=O)[C@@H](NC(=O)[C@H](C)NC(=O)[C@H](CCC(=O)O)NC(=O)[C@H](Cc1cnc[nH]1)NC(=O)[C@@H](NC(=O)CNC(=O)[C@H](CCC(N)=O)NC(=O)[C@H](Cc1ccccc1)NC(=O)[C@@H](NC(=O)[C@H](CCCCN)NC(=O)[C@H](CCCCN)NC(=O)[C@H](CC(C)C)NC(=O)[C@H](C)NC(=O)[C@H](CC(N)=O)NC(=O)[C@@H](N)CC(C)C)C(C)C)[C@@H](C)CC)[C@@H](C)CC)C(N)=O [LNALKKVFQGIHEAIKKI]

MIC [2]: 20.3 µM (≈ 32 µg/mL)
MIC [32]: 10.2 µM (≈ 16 µg/mL)
Compound: NC(N)=NCCC[C@H](NC(=O)[C@H](CCCN=C(N)N)NC(=O)[C@H](CCCN=C(N)N)NC(=O)[C@@H](N)CCCN=C(N)N)C(=O)N[C@@H](Cc1c[nH]c2ccccc12)C(=O)N[C@@H](Cc1c[nH]c2ccccc12)C(=O)N[C@@H](Cc1c[nH]c2ccccc12)C(=O)N[C@@H](Cc1c[nH]c2ccccc12)C(=O)N[C@@H](Cc1c[nH]c2ccccc12)C(=O)O [RRRRWWWWW]
